# Reference: PubChem BioAssay (NCI)
# “And” between values parts separate entries of the source, which are not always exact repeats. Equal values may be shown once.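 These data come from cells grown in 96-well plates and exposed to compound for 48 hours at five concentrations. GI50 = concentration required for 50% inhibition of growth. TGI marks complete inhibition of growth.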
# Key:
# Assay in all cases: NCI tumour cell line growth inhibition, 48 h
# [1] = test system: COLO 205 colon
# [2] = test system: HCC-2998 colon
# [3] = test system: HCT-116 colon
# [4] = test system: HOP-92 NSCLC
# [5] = test system: HT29 colon
# [6] = test system: NCI-H460 lung
# [7] = test system: NCI/ADR-RES ovarian
# [8] = test system: OVCAR-3 ovarian
# [9] = test system: OVCAR-5 ovarian
# [10] = test system: SW-620 colon
smiles,measurement,setting,value
O=C1c2cc([N+](=O)[O-])cc3cc([N+](=O)[O-])cc(c23)C(=O)N1CCCNCCNCCCN1C(=O)c2cc([N+](=O)[O-])cc3cc([N+](=O)[O-])cc(c23)C1=O,TGI,[1],0.849 µM
same,TGI,[2],1.51 µM
same,TGI,[3],0.667 µM
same,TGI,[4],1.82 µM
same,TGI,[5],5.25 µM
same,TGI,[6],3.56 µM
same,TGI,[7],> 100 µM
same,TGI,[8],2.35 µM
same,TGI,[9],6.68 µM
same,TGI,[10],4.52 µM
OCC1OC(n2cnc3c2NC=NC[C@H]3O)CC1O (some centres undefined),GI50,[1],> 588 µM
same,TGI,[1],500 µM and > 588 µM
same,GI50,[2],> 588 µM
same,TGI,[2],402 µM and > 588 µM
same,GI50,[3],> 588 µM
same,TGI,[3],500 µM and > 588 µM
same,GI50,[4],> 588 µM
same,TGI,[4],454 µM and > 588 µM
same,GI50,[5],469 µM and > 588 µM
same,TGI,[5],474 µM and > 588 µM
same,GI50,[6],> 588 µM
same,TGI,[6],480 µM and > 588 µM
same,TGI,[7],500 µM
same,GI50,[8],> 588 µM
same,TGI,[8],500 µM and > 588 µM
same,GI50,[9],> 588 µM
same,TGI,[9],> 588 µM
same,GI50,[10],478 µM and > 588 µM
same,TGI,[10],500 µM and > 588 µM
COc1ccc(OC)c(/C=C2\COc3ccc(O)c(O)c3C2=O)c1,GI50,[1],3.22 µM
same,TGI,[1],9.51 µM
same,GI50,[2],1.88 µM
same,TGI,[2],3.48 µM
same,GI50,[3],1.82 µM
same,TGI,[3],4.13 µM
same,GI50,[4],2.8 µM
same,TGI,[4],8.86 µM
same,GI50,[5],2.68 µM
same,TGI,[5],6.6 µM
same,GI50,[6],2.07 µM
same,TGI,[6],5.61 µM
same,GI50,[7],2.51 µM
same,TGI,[7],10.9 µM
same,GI50,[8],1.36 µM
same,TGI,[8],5.31 µM
same,GI50,[9],2.62 µM
same,TGI,[9],6.48 µM
same,GI50,[10],2.22 µM
same,TGI,[10],5.98 µM
COc1cc(C2CC(c3ccccc3)=NN2C(C)=O)cc(OC)c1OC (centres undefined),GI50,[1],2.92 µM
same,TGI,[1],> 41 µM
same,GI50,[2],6.4 µM
same,TGI,[2],> 74 µM
same,GI50,[3],2.83 µM
same,TGI,[3],> 100 µM
same,GI50,[4],32.9 µM
same,TGI,[4],> 100 µM
same,GI50,[5],2.57 µM
same,TGI,[5],> 100 µM
same,GI50,[6],3.55 µM
same,TGI,[6],> 51 µM
same,GI50,[7],2.8 µM
same,TGI,[7],> 26.1 µM
same,GI50,[8],2.11 µM
same,TGI,[8],6.52 µM
same,GI50,[9],70.7 µM
same,TGI,[9],> 100 µM
same,GI50,[10],3.04 µM
same,TGI,[10],> 100 µM
O=C(CN1C(=O)S/C(=C\C(Cl)=C\c2ccccc2)C1=O)NCCc1ccc(O)cc1,GI50,[1],2.31 µM
same,TGI,[1],5.68 µM
same,GI50,[2],1.85 µM
same,TGI,[2],3.33 µM
same,GI50,[3],1.42 µM
same,TGI,[3],3.1 µM
same,GI50,[4],1.58 µM
same,TGI,[4],5.05 µM
same,GI50,[5],3.02 µM
same,TGI,[5],12.3 µM
same,GI50,[6],2 µM
same,TGI,[6],6.12 µM
same,GI50,[7],2.44 µM
same,TGI,[7],8.81 µM
same,GI50,[8],1.69 µM
same,TGI,[8],3.27 µM
same,GI50,[9],2.31 µM
same,TGI,[9],5.66 µM
same,GI50,[10],1.82 µM
same,TGI,[10],4.22 µM
CC1OC(n2c3ccccc3c3c4c(c5c6ccccc6[nH]c5c32)C(=O)N(CCN2CCOCC2)C4=O)CC(O)C1O (centres undefined),GI50,[1],1.22 µM
same,TGI,[1],7.81 µM
same,GI50,[2],7.03 µM
same,TGI,[2],14 µM
same,GI50,[3],1.33 µM
same,TGI,[3],6.92 µM
same,GI50,[4],7.77 µM
same,TGI,[4],15.8 µM
same,GI50,[5],1.92 µM
same,TGI,[5],9.91 µM
same,GI50,[6],0.734 µM
same,TGI,[6],5.27 µM
same,GI50,[7],2.87 µM
same,TGI,[7],13.1 µM
same,GI50,[8],4.36 µM
same,TGI,[8],12.2 µM
same,GI50,[9],5.36 µM
same,TGI,[9],12.9 µM
same,GI50,[10],1.07 µM
same,TGI,[10],8.78 µM
CCCCCCCCCCCCCCCCCC(=O)OCC(COC1OC(CS(=O)(=O)O)C(O)C(O)C1O)OC(=O)CCCCCCCCCCCCCCCCC (centres undefined),TGI,[1],> 100 µM
same,TGI,[2],> 100 µM
same,TGI,[3],> 100 µM
same,TGI,[4],> 100 µM
same,TGI,[5],> 100 µM
same,TGI,[6],> 100 µM
same,TGI,[7],> 100 µM
same,TGI,[8],> 100 µM
same,TGI,[9],> 100 µM
same,TGI,[10],> 100 µM
Cn1ccnc1C(=O)/C=C/c1ccc(CC(=O)Nc2ccc(F)cc2)cc1,GI50,[1],4.39 µM
same,TGI,[1],10.3 µM
same,GI50,[2],3.78 µM
same,TGI,[2],7.95 µM
same,GI50,[3],0.99 µM
same,TGI,[3],3.68 µM
same,GI50,[4],4.51 µM
same,TGI,[4],13 µM
same,GI50,[5],2.27 µM
same,TGI,[5],8.21 µM
same,GI50,[6],1.8 µM
same,TGI,[6],9.89 µM
same,GI50,[7],4.24 µM
same,TGI,[7],> 25 µM
same,GI50,[8],0.962 µM
same,TGI,[8],3.67 µM
same,GI50,[9],4.36 µM
same,TGI,[9],10.9 µM
same,GI50,[10],1.97 µM
same,TGI,[10],12 µM
CC(C)NC(=O)OCc1c(COC(=O)NC(C)C)c(-c2ccc(Cl)c(Cl)c2)n2c1CCC2,TGI,[1],71.3 µM
same,TGI,[2],61.2 µM
same,TGI,[3],73 µM
same,TGI,[4],52.2 µM
same,TGI,[5],64.1 µM
same,TGI,[6],68.3 µM
same,TGI,[7],> 100 µM
same,TGI,[8],69.9 µM
same,TGI,[9],64.1 µM
same,TGI,[10],71.7 µM
Cc1[nH]nc2ccc3nc(-c4ccc5[nH]ncc5c4)c4c(c3c12)CCCC4,GI50,[1],1.09 µM
same,TGI,[1],10.8 µM
same,GI50,[2],2.19 µM
same,TGI,[2],15.1 µM
same,GI50,[3],0.473 µM
same,TGI,[3],11.3 µM
same,GI50,[4],1.91 µM
same,TGI,[4],6 µM
same,GI50,[5],1.51 µM
same,TGI,[5],12.5 µM
same,GI50,[6],0.832 µM
same,TGI,[6],11.2 µM
same,GI50,[7],2.4 µM
same,TGI,[7],15.8 µM
same,GI50,[8],2.07 µM
same,TGI,[8],10.6 µM
same,GI50,[9],2.53 µM
same,TGI,[9],13.9 µM
same,GI50,[10],0.494 µM
same,TGI,[10],8.79 µM
CC(=O)OC1Oc2cc(C)c(C)cc2-c2oc(=O)c(-c3ccc(F)cc3)cc21 (centres undefined),GI50,[1],7.3 µM
same,TGI,[1],26.1 µM
same,GI50,[2],3.97 µM
same,TGI,[2],28.2 µM
same,GI50,[3],4.23 µM
same,TGI,[3],46.2 µM
same,GI50,[4],3.1 µM
same,TGI,[4],16.9 µM
same,GI50,[5],2.7 µM
same,TGI,[5],12.1 µM
same,GI50,[6],3.9 µM
same,TGI,[6],24.4 µM
same,GI50,[7],2.86 µM
same,TGI,[7],9.34 µM
same,GI50,[8],3.99 µM
same,TGI,[8],16.6 µM
same,GI50,[9],6.3 µM
same,TGI,[9],> 100 µM
same,GI50,[10],3.87 µM
same,TGI,[10],28.8 µM
CC(C(=O)O)/C(=C\c1ccc2c(c1)OCO2)C(=O)O (centres undefined),TGI,[1],> 100 µM
same,TGI,[2],> 100 µM
same,TGI,[3],> 100 µM
same,TGI,[4],> 100 µM
same,TGI,[5],> 82.2 µM
same,TGI,[6],> 100 µM
same,TGI,[7],> 100 µM
same,TGI,[8],> 100 µM
same,TGI,[9],> 61.5 µM
same,TGI,[10],> 100 µM
O=C1CCC(N2Cc3c(C#CCCCNC(=O)c4cc5c(o4)C(=O)c4ccccc4C5=O)cccc3C2=O)C(=O)N1 (centres undefined),GI50,[1],2.3 µM
same,TGI,[1],6.01 µM
same,GI50,[2],2.63 µM
same,TGI,[2],6.63 µM
same,GI50,[3],3.09 µM
same,TGI,[3],10.3 µM
same,GI50,[4],9.07 µM
same,TGI,[4],26 µM
same,GI50,[5],5.92 µM
same,TGI,[5],39.9 µM
same,GI50,[6],1.99 µM
same,TGI,[6],4.09 µM
same,GI50,[7],> 100 µM
same,TGI,[7],> 100 µM
same,GI50,[8],1.97 µM
same,TGI,[8],4.8 µM
same,GI50,[9],15.6 µM
same,TGI,[9],29.7 µM
same,GI50,[10],3.05 µM
same,TGI,[10],11.4 µM
